{"source": "patent US12385066B2", "about": "“Retroviral transduction using poloxamers” (HELMHOLTZ ZENTRUM MUNCHEN—DEUTSCHES FORSCHU[…] GESUNDHEIT …, priority 2012, dated 2025)", "key": {"HEK293T cells [1]": {"test_system": "HEK293T cells", "experiment": "Cell proliferation assay (WST-1), cellular toxicity of adjuvants", "type": "cell-based, human", "protocol": "In 6-well plates, triplicates of 2×10^5 cells per well were seeded and treated with defined adjuvant concentrations ranging from 1 μg/ml to 1000 μg/ml. After 24 hours incubation (at 37° C. with 5% C02) the medium was exchanged with fresh medium and cells were incubated for additional 48 hours. Cell proliferation was determined with the WST-1 colorimetric cell proliferation assay (Roche), according to manufacturer's instructions. Shortly, cells were trypsinized following 100 μl cell incubation with 10 μl WST-1 substrate (at 37° C. with 5% C02) for 2 hours. The assay was performed in 96-well microtiter plates and absorbance was determined at 490 nm using a TECAN-Infinite microplate reader (TECAN).\nFrom potential adjuvant substances for lentiviral gene delivery we selected five representatives from the class of polycation-like and seven from the class of poloxamer-like chemical substances (Tab. 1). HEK293T cells were co-incubated with defined substance concentration for 24 hours, than medium was changed and cells were incubated for additional 48 hours prior measurements of cell proliferation. To test specific HEK293T growth inhibition by different substances we measured incorporation of WST1 substrate and correlated to control cell population without any substance co-incubation (FIG. 1). […]"}, "HEK293T cells [2]": {"test_system": "HEK293T cells", "experiment": "Adjuvant-assisted lentiviral (GFP) gene transfer into HEK293T cells, flow cytometry", "type": "cell-based, human", "procedure": "HEK293T cells (2×10^5 cells per well) were covered with 1 ml medium containing lentivirus (GP) with or without adjuvants. […] In given case, plates were centrifuged at 1,000 g for 60 min. After 24 hours incubation (at 37° C. with 5% CO2) the supernatant was exchanged with fresh medium and incubated for additional 48 hours. Combined microscopic analysis and documentation was done after 48 hours post infection (HBO 50/AC and AxioCam MRC, Carl Zeiss AG). […] Plates were centrifuged at 800 g for 90 min.\nAfter lentiviral transduction, cells were washed in PBS and resuspended in PBS with 1 μg/mi propidium iodide (Invitrogen). After 10 min incubation on ice, 30,000 events were analyzed for forward/sideward scatter characteristics, green fluorescence light emission at 530 nm and red fluorescence light emission at 610 nm in FACSDiva (BD Biosciences).\nHEK293T cells were covered (for 24 hours) with a mixture of LV with specified adjuvant in a maximum tolerable concentration (1000 μg/ml). LV carrying a CopGFP-coding transgene were applied in decreasing MOI from 2.5 to 0.0025. After medium change, cells were cultivated for another 48 hours and measured for green fluorescent light emission by flow cytometry.\nHEK293T cells were covered (for 24 hours) with a mixture of LV as used in example 3 with specified adjuvant up to a maximum applied concentration of 5000 μg/ml Synperonic F108. […]"}}}
{"smiles": "CC(C)CCC[C@@H](C)[C@H]1CC[C@H]2[C@@H]3CC=C4C[C@@H](OC(=O)NCCN(C)C)CC[C@]4(C)[C@H]3CC[C@]12C.Cl", "note": "[Cholesterylcarbamate, Cholesteryl-3β-N-(dimethyl-amino-ethyl)-carbamate-hydrochloride]", "values": [{"measurement": "cell proliferation / toxicity", "setting": "HEK293T cells [1]; increasing concentrations above 10 μg/ml, FIG. 1a", "result": "massive reduction in cell proliferation"}]}
{"smiles": "CCCCCCCC/C=C\\CCCCCCCC(=O)OC[C@H](COP(=O)(O)OCCN)OC(=O)CCCCCCC/C=C\\CCCCCCCC", "note": "[PEA, L-α-Phosphatidyl-ethanolamine-dioleoyl]", "values": [{"measurement": "cell proliferation / cellular viability", "setting": "HEK293T cells [1]; 1000 μg/ml, FIG. 1", "result": "remained non-toxic"}, {"measurement": "transduction efficiency (in words)", "setting": "HEK293T cells [2]; MOI 2.5, polybrene 10 μg/ml, others 1000 μg/ml, FIG. 2", "result": "low transduction rates"}, {"measurement": "transduction/infection compared with polybrene-assisted LV infection (in words)", "setting": "HEK293T cells [2]; polybrene 10 μg/ml, others 1000 μg/ml and above", "result": "failed to further increase this transduction level"}]}
